According to patent US11858922B2, “Sulfonylureas and related compounds and use of same” (The University of Queensland, priority 2016, dated 2024):

Molecular target: not listed separately
Test: Isothermal titration calorimetry (ITC), copper complexation of MCC950
Format: binding
Conditions: ITC, CuCl2 titrated into 0.4 mM MCC950Na in water, 25° C.
Description: Complex formation between the sodium form of MCC950 and copper chloride was tested and detected by using isothermal titration calorimetry (ITC). MCC950 (also known as CRID3) is a sulphonylurea having the formula: […]
An autoITC 200 (GE life sciences) was used to measure the change in heat induced by Cu^2+-MCC950 interactions and data analysed using the MicroCal Origin version 7.0 software package adapted for auto-ITC data analysis.
Copper chloride (5 or 2.5 mM of CuCl2) dissolved in water (miliQ water; Elga) was titrated into a cell containing 0.4 mM MCC950Na also dissolved in water. The titration consisted of 19×2 μL injections at 25° C. As a control EDTA was used, in free acid form or as a sodium di-salt, at a concentration of 0.4 mM. Experiments were replicated three times and results were averaged. Thermograms and binding isotherms were used to determine the enthalpy (ΔH), binding constants (K), stoichiometry (N), and entropy (TΔS) using a single-site binding model. The change in standard Gibbs free energy (ΔG) was calculated using the Gibbs-Helmholz thermodynamic equation: ΔG=−RTInK, where R is the ideal gas constant (1.985 cal mol^−1K^−1) and T is the temperature (298 K).

| K (binding constant) | SMILES |
| --- | --- |
| 5.69 ± 0.3 10^4 M^−1 | CC(C)(O)c1coc(S(=O)(=O)NC(=O)Nc2c3c(cc4c2CCC4)CCC3)c1 [MCC950] |

Same assay, conditions: MCC950 sodium salt

| binding to Cu^2+ (ITC, FIG. 1) | SMILES |
| --- | --- |
| significant binding | CC(C)(O)c1coc(S(=O)(=O)NC(=O)Nc2c3c(cc4c2CCC4)CCC3)c1 [MCC950] |

Test system: not listed separately
Test: Isothermal titration calorimetry (ITC), Ca^2+ binding
Conditions: MCC950 sodium salt

| binding to Ca^2+ (ITC, FIG. 1) | SMILES |
| --- | --- |
| no binding | CC(C)(O)c1coc(S(=O)(=O)NC(=O)Nc2c3c(cc4c2CCC4)CCC3)c1 [MCC950] |

Molecular target: T1, NLRP3 inflammasome (Homo sapiens, UniProt Q96P20)
T1 construct: endogenous in cells; host or cells: HMDM (human monocyte-derived macrophages from buffy coat blood)
T1 sequence (Q96P20 whole entry): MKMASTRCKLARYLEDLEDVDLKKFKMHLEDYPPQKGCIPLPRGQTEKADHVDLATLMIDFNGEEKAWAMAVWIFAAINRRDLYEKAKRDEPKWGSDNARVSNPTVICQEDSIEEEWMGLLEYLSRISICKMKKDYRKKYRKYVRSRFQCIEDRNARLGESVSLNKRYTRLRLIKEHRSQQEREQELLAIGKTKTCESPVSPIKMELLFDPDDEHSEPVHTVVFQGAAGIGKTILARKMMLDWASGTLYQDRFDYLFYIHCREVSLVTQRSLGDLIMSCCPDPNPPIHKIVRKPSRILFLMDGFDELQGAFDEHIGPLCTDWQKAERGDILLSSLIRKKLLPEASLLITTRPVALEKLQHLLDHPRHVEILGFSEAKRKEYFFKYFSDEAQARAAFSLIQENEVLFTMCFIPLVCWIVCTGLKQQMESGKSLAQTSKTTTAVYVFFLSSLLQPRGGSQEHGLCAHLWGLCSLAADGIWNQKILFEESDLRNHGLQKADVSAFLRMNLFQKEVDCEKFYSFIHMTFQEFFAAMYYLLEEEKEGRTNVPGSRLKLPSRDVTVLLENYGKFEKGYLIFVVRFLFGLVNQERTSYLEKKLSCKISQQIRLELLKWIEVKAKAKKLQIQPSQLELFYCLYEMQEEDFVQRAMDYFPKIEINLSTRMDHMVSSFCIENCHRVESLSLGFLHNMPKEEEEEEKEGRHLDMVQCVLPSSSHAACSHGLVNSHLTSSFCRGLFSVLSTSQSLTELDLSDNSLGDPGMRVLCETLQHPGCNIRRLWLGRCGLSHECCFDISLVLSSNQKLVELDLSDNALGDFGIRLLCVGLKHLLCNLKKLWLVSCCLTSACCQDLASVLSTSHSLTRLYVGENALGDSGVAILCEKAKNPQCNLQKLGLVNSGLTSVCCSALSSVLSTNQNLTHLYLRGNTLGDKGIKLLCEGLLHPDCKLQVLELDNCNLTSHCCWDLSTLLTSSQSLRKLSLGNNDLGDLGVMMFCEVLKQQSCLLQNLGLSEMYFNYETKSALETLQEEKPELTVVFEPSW
Test: Inhibition of IL-1β release, cell based assay using HMDM (NLRP3 inflammasome activation assay)
Conditions: not given
Description: The following assays can be used to determine inhibitory activity of test compounds on the NLRP3 inflammasome using common stimuli such as adenosine triphosphate, nigericin, LeuLeu-OMe or monosodium urate crystals (MSU).
To generate HMDM (Human Monocyte Derived Macrophages), human monocytes are isolated from buffy coat blood using Ficoll-Plaque Plus (GE Healthcare) and density centrifugation. CD14^+ cell selection is performed using MACS magnetic beads (Miltenyl Biotec). Isolated CD14^+ monocytes are differentiated in culture for 7 days with 10 ng/ml human CSF-1 (Miltenyl Biotec) in Iscove's modified Dulbecco's medium (IMDM) containing L-glutamine supplemented with 10% FBS and 1% penicillin/streptomycin (Life Technologies) as described by Croker et al 2013 Immunol Cell Biol 91:625. Stably transfected ASC-cerulean macrophages as described by Hett et al. (Nat. Chem. Biol., 9, 398-405, 2013) are cultured in DMEM supplemented with 10% FCS and 1% P/S.
HMDM are seeded at 1×10^5/ml. […]
For ELISA and cell death assays cells are seeded in 96 well plates. Supernatants are removed and analysed using ELISA kits according to the manufacturer's instructions (DuoSet® R&D Systems, ReadySetGo!® eBioscience, BD OptEIA™, or Perkin Elmer AlphaLISA®). Cell death is assessed by measurement of LDH release relative to a 100% cell lysis control using the CytoTox96® non-radioactive cytotoxicity assay (Promega).

| IC50 [µM] | SMILES |
| --- | --- |
| < 1 | CN1CCN(S(=O)(=O)NC(=O)Nc2c3c(cc4c2CCC4)CCC3)CC1 [Example 2, N-((1,2,3,5,6,7-hexahydro-s-indacen-4-yl)carbamoyl)-4-methylpiperazine-1-sulfonamide] |
| < 10 | CC(C)n1ccc(S(=O)(=O)NC(=O)Nn2c3ccccc3c3ccccc32)n1 [Example 4, N-((9H-carbazol-9-yl)carbamoyl)-1-isopropyl-1H-pyrazole-3-sulfonamide] |

Molecular target: T2, NLRP3 (Homo sapiens, UniProt Q96P20)
T2 construct: Seed THP-1 cells (25,000 cells/well) containing 1.0 μg/ml LPS; host or cells: THP-1 cells
T2 sequence (Q96P20 whole entry): as above
Test: THP-1 cells pyroptosis assay
Format: cell-based
Conditions: LPS 1.0 μg/ml, nigericin 5 μM, resazurin readout
Description: It is well established that the activation of NLRP3 leads to cell pyroptosis and this feature plays an important part in the manifestation of the clinical disease (Yan-gang Liu et al., Cell Death & Disease, 2017, 8(2), e2579; Alexander Wree et al., Hepatology, 2014, 59(3), 898-910; Alex Baldwin et al., Journal of Medicinal Chemistry, 2016, 59(5), 1691-1710; Ema Ozaki et al., Journal of Inflammation Research, 2015, 8, 15-27; Zhen Xie & Gang Zhao, Neuroimmunology Neuroinflammation, 2014, 1(2), 60-65; Mattia Cocco et al., Journal of Medicinal Chemistry, 2014, 57(24), 10366-10382; T. Satoh et al., Cell Death & Disease, 2013, 4, e644). Therefore, it is anticipated that inhibitors of NLRP3 will block pyroptosis, as well as the release of pro-inflammatory cytokines (e.g. IL-1β) from the cell.
THP-1 cells (ATCC #TIB-202) were grown in RPMI containing L-glutamine (Gibco #11835) supplemented with 1 mM sodium pyruvate (Sigma #S8636) and penicillin (100 units/ml)/streptomycin (0.1 mg/ml) (Sigma #P4333) in 10% Fetal Bovine Serum (FBS) (Sigma #F0804). The cells were routinely passaged and grown to confluency (˜10^6 cells/ml). On the day of the experiment, THP-1 cells were harvested and resuspended into RPMI medium (without FBS). The cells were then counted and viability (>90%) checked by Trypan blue (Sigma #T8154). Appropriate dilutions were made to give a concentration of 625,000 cells/ml. To this diluted cell solution was added LPS (Sigma #L4524) to give a 1 μg/ml Final Assay Concentration (FAC). 40 μl of the final preparation was aliquoted into each well of a 96-well plate. The plate thus prepared was used for compound screening.
The following method step-by-step assay was followed for compound screening. • 1. Seed THP-1 cells (25,000 cells/well) containing 1.0 μg/ml LPS in 40 μl of RPMI medium (without FBS) in 96-well, black walled, clear bottom cell culture plates coated with poly-D-lysine (VWR #734-0317) • 2. Add 5 μl compound (8 points half-log dilution, with 10 μM top dose) or vehicle (DMSO 0.1% FAC) to the appropriate wells • 3. Incubate for 3 hrs at 37° C. in 5% CO2 • 4. Add 5 μl nigericin (Sigma #N7143) (FAC 5 μM) to all wells • 5. Incubate for 1 hr at 37° C. and 5% CO2 • 6. At the end of the incubation period, spin plates at 300×g for 3 mins and remove supernatant • 7. Then add 50 μl of resazurin (Sigma #R7017) (FAC 100 μM resazurin in RPMI medium without FBS) and incubate plates for a further 1-1.5 h at 37° C. and 5% CO2 • 8. Plates were read in an Envision reader at Ex 560 nm and Em 590 nm • 9. IC50 data is fitted to a non-linear regression equation (log inhibitor vs response-variable slope 4-parameters) 96-Well Plate Map

| IC50 [µM] | SMILES |
| --- | --- |
| < 10 | CCN(C)C1(CNS(=O)(=O)NC(=O)Nc2c3c(cc4c2CCC4)CCC3)CCCCC1 [Example 12] |
| < 10 | O=C(Nc1c2c(cc3c1CCC3)CCC2)NS(=O)(=O)N1CCN(CCc2cccs2)CC1 [Example 13] |
| < 10 | Cc1ccccc1OCCNS(=O)(=O)NC(=O)Nc1c2c(cc3c1CCC3)CCC2 [Example 26] |
| < 50 | O=C(Nc1c2c(cc3c1CCC3)CCC2)NS(=O)(=O)NCc1ccncc1 [Example 30] |
| < 10 | CS(=O)(=O)c1cccc(CNS(=O)(=O)NC(=O)Nc2c3c(cc4c2CCC4)CCC3)c1 [Example 7] |
| < 10 | CN(Cc1ccncc1)S(=O)(=O)NC(=O)Nc1c2c(cc3c1CCC3)CCC2 [Example 29] |
| < 1 | O=C(Nc1c2c(cc3c1CCC3)CCC2)NS(=O)(=O)Nc1ccc2[nH]ccc2c1 [Example 43, 3-(1,2,3,5,6,7-Hexahydro-s-indacen-4-yl)-1-[(1H-indol-5-yl)sulfamoyl]urea] |
| < 10 | O=C(Nc1c2c(cc3c1CCC3)CCC2)NS(=O)(=O)NCCOc1ccccc1Cl [Example 5] |
| < 10 | O=C(Nc1c2c(cc3c1CCC3)CCC2)NS(=O)(=O)NCc1cccs1 [Example 23] |
| < 10 | CN(C)CCN(Cc1ccsc1)S(=O)(=O)NC(=O)Nc1c2c(cc3c1CCC3)CCC2 [Example 18] |
| < 10 | O=C(Nc1c2c(cc3c1CCC3)CCC2)NS(=O)(=O)Nc1cccc2c1CCC2 [Example 37] |
| < 10 | O=C(Nc1c2c(cc3c1CCC3)CCC2)NS(=O)(=O)NCCN1CCc2ccccc21 [Example 40] |
| < 1 | COc1cc(C)c(NS(=O)(=O)NC(=O)Nc2c3c(cc4c2CCC4)CCC3)cn1 [Example 35] |
| < 10 | O=C(Nc1c2c(cc3c1CCC3)CCC2)NS(=O)(=O)NCc1ccco1 [Example 14] |
| < 10 | Cc1nccn1-c1ccc(NS(=O)(=O)NC(=O)Nc2c3c(cc4c2CCC4)CCC3)cc1 [Example 27] |
| < 10 | Cc1ccc(NS(=O)(=O)NC(=O)Nc2c3c(cc4c2CCC4)CCC3)cc1C#N [Example 33] |

| IC50 [µM] | SMILES |
| --- | --- |
| < 10 | Cc1ccc(OCCNS(=O)(=O)NC(=O)Nc2c3c(cc4c2CCC4)CCC3)cc1 [Example 24] |
| < 10 | Cc1ccnc(C)c1NS(=O)(=O)NC(=O)Nc1c2c(cc3c1CCC3)CCC2 [Example 39] |
| < 1 | Cn1ncc2ccc(NS(=O)(=O)NC(=O)Nc3c4c(cc5c3CCC5)CCC4)cc21 [Example 42, 1-(1,2,3,5,6,7-Hexahydro-s-indacen-4-yl)-3-[(1-methyl-1H-indazol-6-yl)sulfamoyl]urea] |
| < 10 | CN(Cc1csc(-c2ccccc2)n1)S(=O)(=O)NC(=O)Nc1c2c(cc3c1CCC3)CCC2 [Example 20] |
| < 10 | O=C(Nc1c2c(cc3c1CCC3)CCC2)NS(=O)(=O)NCCCc1ccccc1 [Example 25] |
| < 10 | CCn1c(=O)n(CC)c2cc(NS(=O)(=O)NC(=O)Nc3c4c(cc5c3CCC5)CCC4)c(C)cc21 [Example 34] |
| < 10 | O=C(Nc1c2c(cc3c1CCC3)CCC2)NS(=O)(=O)NCc1ccc(Cl)cc1F [Example 6] |
| < 10 | O=C(Nc1c2c(cc3c1CCC3)CCC2)NS(=O)(=O)NCCc1nccs1 [Example 15] |
| < 10 | CC(=O)c1cc2c(cc1NS(=O)(=O)NC(=O)Nc1c3c(cc4c1CCC4)CCC3)OCO2 [Example 36] |
| < 10 | CN(c1ccccc1)S(=O)(=O)NC(=O)Nc1c2c(cc3c1CCC3)CCC2 [Example 31] |
| < 10 | O=C(Nc1c2c(cc3c1CCC3)CCC2)NS(=O)(=O)N1CCc2ccccc21 [Example 28] |
| < 10 | CN(Cc1ccc(F)cc1)S(=O)(=O)NC(=O)Nc1c2c(cc3c1CCC3)CCC2 [Example 32] |
| < 10 | O=C(Nc1c2c(cc3c1CCC3)CCC2)NS(=O)(=O)NCc1c(F)cc(F)cc1F [Example 11] |
| < 50 | O=C(Nc1c2c(cc3c1CCC3)CCC2)NS(=O)(=O)N(CCN1CCOCC1)Cc1ccco1 [Example 17] |
| < 1 | O=C(Nc1c2c(cc3c1CCC3)CCC2)NS(=O)(=O)N(Cc1ccccc1)Cc1nccs1 [Example 19] |
| < 10 | O=C(Nc1c2c(cc3c1CCC3)CCC2)NS(=O)(=O)NCCc1nc(-c2cccnc2)no1 [Example 21] |

Test system: not given
Test: not given
Conditions: mouse; cited from earlier work

| SMILES | half-life [h] |
| --- | --- |
| CC(C)(O)c1coc(S(=O)(=O)NC(=O)Nc2c3c(cc4c2CCC4)CCC3)c1 [MCC950] | 3.2 |
